According to PubChem BioAssay (NCI):
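Assay format: 96-well plates, 48-hour exposure. GI50 is the concentration that inhibits growth by half. TGI: concentration producing complete growth inhibition.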

Columns and labels:
Test in all cases: NCI anticancer screen, dose series, 48 h
NCI-H460 lung = system: NCI-H460 lung
K-562 leukemia = system: K-562 leukemia
EKVX NSCLC = system: EKVX NSCLC
MALME-3M melanoma = system: MALME-3M melanoma
UACC-62 melanoma = system: UACC-62 melanoma
SNB-19 CNS = system: SNB-19 CNS
NCI-H226 lung = system: NCI-H226 lung
M14 melanoma = system: M14 melanoma
A498 renal = system: A498 renal
PC-3 prostate = system: PC-3 prostate

SMILES | TGI (NCI-H460 lung) [µM] | TGI (K-562 leukemia) [µM] | TGI (EKVX NSCLC) [µM] | TGI (MALME-3M melanoma) [µM] | TGI (UACC-62 melanoma) [µM] | TGI (SNB-19 CNS) [µM] | TGI (NCI-H226 lung) [µM] | TGI (M14 melanoma) [µM] | TGI (A498 renal) [µM] | TGI (PC-3 prostate) [µM] | GI50 (NCI-H460 lung) [µM] | GI50 (K-562 leukemia) [µM] | GI50 (MALME-3M melanoma) [µM] | GI50 (UACC-62 melanoma) [µM] | GI50 (PC-3 prostate) [µM] | GI50 (SNB-19 CNS) [µM] | GI50 (NCI-H226 lung) [µM] | GI50 (M14 melanoma) [µM] | GI50 (A498 renal) [µM] | GI50 (EKVX NSCLC) [µM]
COC(=O)C(CC(=O)Nc1ccc(Cl)c(Cl)c1)C(=O)C(=O)NC1C2CC3CC(C2)CC1C3 (stereo unspecified) | > 100 | > 100 | > 100 | > 100 | > 100 | > 100 | > 100 | > 100 | > 100 | – | – | – | – | – | – | – | – | – | – | –
N#CC(C#N)=C1SCC(=O)CS1 | > 100 | > 100 | > 100 | > 100 | > 100 | > 100 | > 100 | > 100 | > 100 | – | – | – | – | – | – | – | – | – | – | –
Clc1nc(Cl)c(Cc2ccccc2)c(Cl)n1 | – | > 100 | 33.2 | 63.2 | 16.9 | 33.3 | 32.4 | 8.38 | – | 44.5 | – | – | – | – | – | – | – | – | – | –
O=C(N/C(=C\c1ccc(Oc2ccc(Cl)c(Cl)c2)cc1)c1nc2ccccc2[nH]1)c1ccccc1 | – | 59.6 | 50.5 | 43.8 | 33.5 | 36.3 | – | 34.8 | – | – | – | – | – | – | – | – | – | – | – | –
COc1ccc2nc(C)cc(Nc3ccccc3O)c2c1 | 54.4 | 64.8 | – | 61.2 | 39.5 | > 100 | > 100 | 45.8 | 45.2 | > 100 | 19.4 | 17.8 | 27.3 | 17.9 | 29.9 | 76.5 | 28 | 17.6 | 8.07 | –
C/C(=C\CC[C@]1(C)OC(C)(C)OC1CC/C(C)=C/CO[Si](c1ccccc1)(c1ccccc1)C(C)(C)C)CC/C=C/CO[Si](C)(C)C(C)(C)C (stereo partly specified) | > 100 | > 100 | > 100 | > 100 | > 100 | > 100 | > 100 | > 100 | > 100 | – | – | – | – | – | – | – | – | – | – | –
O=C(/C=C1/NC(=O)CS1)Nc1ccccc1 | > 100 | > 100 | > 100 | > 100 | > 100 | > 100 | > 100 | > 100 | > 100 | – | – | – | – | – | – | – | – | – | – | –
O=C1C[C@H]2CC3(CC[C@H]2CN1)OCCO3 | > 100 | > 100 | > 100 | > 100 | > 100 | > 100 | – | > 100 | > 100 | – | – | – | – | – | – | – | – | – | – | –
C[CH2][Sn]([Cl])([Cl])[CH2]C | > 100 | > 69 | > 100 | 30.3 | 47.8 | > 91.9 | 42.6 | 57.7 | 43.7 | – | > 64.3 | 18.6 | 15.8 | 22 | – | 39.5 | 19.9 | 24.1 | 23.4 | > 65.6
COc1cc([C@@H]2OC(=O)C3C2C(=O)O[C@H]3c2cc(OC)c(OC)c(OC)c2)cc(OC)c1OC (stereo partly specified) | > 100 | > 100 | > 100 | – | > 100 | > 100 | > 100 | > 100 | > 100 | – | – | – | – | – | – | – | – | – | – | –
C[CH2][Sn]([CH2]C)([O]C(=O)c1cccc(F)c1)[O][Sn]([CH2]C)([CH2]C)[O]C(=O)c1cccc(F)c1 | > 100 | 93.4 | 29.1 | 27.3 | 32.7 | 39.5 | 33.8 | 31.3 | 30.2 | – | 33.8 | 18 | 14.1 | 18.4 | – | 20.2 | 18.8 | 16.9 | 16.5 | 15.3
Cc1cccc2c1C(=O)OC2(C)c1cccc2ccccc12 (stereo unspecified) | > 100 | > 100 | > 100 | > 100 | – | > 100 | 57.2 | 40.7 | – | – | – | – | – | – | – | – | – | – | – | –
Clc1ccc(SCCCCCCCCCCSc2ccc(Cl)cc2)cc1 | > 78.7 | > 100 | > 96.6 | > 70.3 | > 100 | > 100 | > 100 | > 100 | > 100 | – | – | – | – | – | – | – | – | – | – | –
C=CC(=O)Nc1cccc(C)c1Nc1ncc2cc(-c3c(Cl)c(OC)cc(OC)c3Cl)ccc2n1 | 11.5 | > 100 | 52.9 | 31.4 | 42.9 | 47.1 | 18.1 | 57.2 | – | 23.3 | 1.64 | 3.89 | 3.98 | 7.96 | 2.09 | 4.14 | 3.18 | 7.44 | – | 6.85
CC(C)CCc1c(Cl)nc(Cl)nc1Cl | 39.7 | > 100 | 63.2 | 50.7 | 24.7 | 39 | 14.6 | 15.3 | – | > 100 | – | – | – | – | – | – | – | – | – | –
CC1(C)C2C/C(=C\c3ccccc3)C(=O)C1C2 (stereo unspecified) | > 100 | > 100 | > 100 | > 100 | > 100 | > 100 | – | > 100 | > 100 | – | – | – | – | – | – | – | – | – | – | –
COc1cc(C(=O)CC2(O)C(=O)Nc3c(Cl)cc(Cl)cc32)ccc1O (stereo unspecified) | > 100 | > 100 | > 100 | > 100 | – | > 100 | > 100 | > 100 | – | – | – | – | – | – | – | – | – | – | – | –
COc1ccc2c(c1)CC1c3c(cc4c(c3-2)OCO4)CCN1C (stereo unspecified) | 60.4 | > 100 | 81.5 | 83.3 | 47.6 | > 100 | 64.9 | 62.9 | 31.7 | – | – | – | – | – | – | – | – | – | – | –
Cc1ccc(/C=C2\CCCC\C2=N\O)cc1 | > 100 | > 100 | > 100 | – | > 100 | > 100 | – | > 100 | > 100 | – | – | – | – | – | – | – | – | – | – | –
CCOC(=O)NC(=O)c1cn(CCN2CCN(C(=O)NCCCCCCNC(=O)N3CCN(CCn4cc(C(=O)NC(=O)OCC)c(=O)n(CCN(CC)CC)c4=O)CC3)CC2)c(=O)n(CCC(CC)CC)c1=O | > 100 | > 100 | > 100 | > 100 | > 100 | > 100 | – | > 100 | > 100 | – | – | – | – | – | – | – | – | – | – | –
C=CCN=C1NC(=O)C(CC(=O)Nc2ccc(C)cc2)S1 (stereo unspecified) | > 100 | > 100 | > 100 | > 100 | > 100 | > 100 | > 100 | > 100 | > 100 | – | – | – | – | – | – | – | – | – | – | –
